Assay results from ChEMBL document CHEMBL1201862, “PubChem BioAssay data set” (2004).
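How tested: cells in 96-well plates exposed to compound for 48 hours at five concentrations. GI50 is the concentration that inhibits growth by half.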 Activity calls are given as the source filed them. No stated cut-off is given here; in the data, active = GI50 up to about 1.1 µM and inactive = higher.

Tests used:
Assay in all cases: NCI tumour cell line growth inhibition, 48 h
786-0 = test system: 786-0
A498 = test system: A498
A549 = test system: A549
ACHN = test system: ACHN
BT-549 = test system: BT-549
CCRF-CEM = test system: CCRF-CEM
DU-145 = test system: DU-145
EKVX = test system: EKVX
HCC 2998 = test system: HCC 2998
HCT-116 = test system: HCT-116
HCT-15 = test system: HCT-15
HOP-62 = test system: HOP-62
HOP-92 = test system: HOP-92
HT-29 = test system: HT-29
Hs-578T = test system: Hs-578T
IGROV-1 = test system: IGROV-1
K562 = test system: K562
KM12 = test system: KM12
LOX IMVI = test system: LOX IMVI
M14 = test system: M14
MCF7 = test system: MCF7
MDA-MB-231 = test system: MDA-MB-231
MDA-MB-435 = test system: MDA-MB-435
MDA-N = test system: MDA-N
MOLT-4 = test system: MOLT-4
Malme-3M = test system: Malme-3M
NCI-H226 = test system: NCI-H226
NCI-H23 = test system: NCI-H23
NCI-H460 = test system: NCI-H460
OVCAR-3 = test system: OVCAR-3
OVCAR-5 = test system: OVCAR-5
OVCAR-8 = test system: OVCAR-8
PC-3 = test system: PC-3
RXF 393 = test system: RXF 393
SF-268 = test system: SF-268
SF-295 = test system: SF-295
SF-539 = test system: SF-539
SK-MEL-2 = test system: SK-MEL-2
SK-MEL-5 = test system: SK-MEL-5
SK-OV-3 = test system: SK-OV-3
SN12C = test system: SN12C
SNB-19 = test system: SNB-19
SNB-75 = test system: SNB-75
SW-620 = test system: SW-620
T47D = test system: T47D
TK-10 = test system: TK-10
U-251 = test system: U-251
UACC-257 = test system: UACC-257
UACC-62 = test system: UACC-62
UO-31 = test system: UO-31
CAKI-1 = test system: CAKI-1
COLO 205 = test system: COLO 205
HL-60 = test system: HL-60
NCI-H522 = test system: NCI-H522
OVCAR-4 = test system: OVCAR-4
RPMI-8226 = test system: RPMI-8226
SK-MEL-28 = test system: SK-MEL-28
SR = test system: SR

For `COC(=O)CCC(NC(=O)C(C)NC(=O)COC1C(O)C(OC(=O)CCNc2c3ccccc3nc3cccc([N+](=O)[O-])c23)OC(OCc2ccccc2)C1NC(C)=O)C(N)=O` (stereo not drawn), which GI50 (786-0) is on record?
Its GI50 is 3.56 µM (inactive).

What about the GI50 (A498) of the same compound?
The GI50 was > 10 µM (inactive).

What about the GI50 (A549) of the same compound?
Its GI50 is > 10 µM (inactive).

What about the GI50 (ACHN) of the same compound?
The GI50 was 3.61 µM (inactive).

And the GI50 (BT-549)?
Its GI50 is > 10 µM (inactive).

And the GI50 (CCRF-CEM)?
The GI50 was > 10 µM (inactive).

What about the GI50 (DU-145) of the same compound?
The GI50 was 2.6 µM (inactive).

What about the GI50 (EKVX) of the same compound?
Its GI50 is > 10 µM (inactive).

And the GI50 (HCC 2998)?
Its GI50 is 2.76 µM (inactive).

What about the GI50 (HCT-116) of the same compound?
Its GI50 is 1.64 µM (inactive).

And the GI50 (HCT-15)?
Its GI50 is 3.21 µM.

What about the GI50 (HOP-62) of the same compound?
Its GI50 is 3.7 µM (inactive).

What about the GI50 (HOP-92) of the same compound?
The GI50 was 4.43 µM (inactive).

And the GI50 (HT-29)?
The GI50 was 2.62 µM (inactive).

And the GI50 (Hs-578T)?
The GI50 was > 10 µM (inactive).

And the GI50 (IGROV-1)?
The GI50 was > 10 µM (inactive).

And the GI50 (K562)?
The GI50 was 1.91 µM (inactive).

And the GI50 (KM12)?
Its GI50 is 5.71 µM (inactive).

And the GI50 (LOX IMVI)?
Its GI50 is > 10 µM (inactive).

What about the GI50 (M14) of the same compound?
Its GI50 is 2.79 µM (inactive).

And the GI50 (MCF7)?
Its GI50 is 2.28 µM (inactive).

What about the GI50 (MDA-MB-231) of the same compound?
The GI50 was 3.48 µM (inactive).

What about the GI50 (MDA-MB-435) of the same compound?
The GI50 was 3.39 µM (inactive).

What about the GI50 (MDA-N) of the same compound?
The GI50 was 2.24 µM (inactive).

What about the GI50 (MOLT-4) of the same compound?
Its GI50 is 3 µM (inactive).

What about the GI50 (Malme-3M) of the same compound?
The GI50 was 2.22 µM (inactive).

And the GI50 (NCI-H226)?
The GI50 was > 10 µM (inactive).

And the GI50 (NCI-H23)?
Its GI50 is > 10 µM (inactive).

And the GI50 (NCI-H460)?
The GI50 was > 10 µM (inactive).

What about the GI50 (OVCAR-3) of the same compound?
The GI50 was 5.42 µM (inactive).

What about the GI50 (OVCAR-5) of the same compound?
The GI50 was > 10 µM (inactive).

And the GI50 (OVCAR-8)?
The GI50 was 6.5 µM (inactive).

And the GI50 (PC-3)?
Its GI50 is > 10 µM (inactive).

And the GI50 (RXF 393)?
Its GI50 is 3.05 µM (inactive).

What about the GI50 (SF-268) of the same compound?
The GI50 was 7.26 µM (inactive).

And the GI50 (SF-295)?
The GI50 was > 10 µM (inactive).

And the GI50 (SF-539)?
The GI50 was > 10 µM (inactive).

And the GI50 (SK-MEL-2)?
Its GI50 is 1.93 µM (inactive).

What about the GI50 (SK-MEL-5) of the same compound?
The GI50 was 1.61 µM (inactive).

What about the GI50 (SK-OV-3) of the same compound?
Its GI50 is > 10 µM (inactive).

What about the GI50 (SN12C) of the same compound?
Its GI50 is 4.2 µM (inactive).

And the GI50 (SNB-19)?
The GI50 was 5.36 µM (inactive).

And the GI50 (SNB-75)?
Its GI50 is > 10 µM (inactive).

And the GI50 (SW-620)?
Its GI50 is 0.114 µM (active).

And the GI50 (T47D)?
The GI50 was > 10 µM (inactive).

And the GI50 (TK-10)?
The GI50 was > 10 µM (inactive).

What about the GI50 (U-251) of the same compound?
Its GI50 is 9.98 µM (inactive).

What about the GI50 (UACC-257) of the same compound?
Its GI50 is > 10 µM (inactive).

What about the GI50 (UACC-62) of the same compound?
The GI50 was 3.08 µM (inactive).

And the GI50 (UO-31)?
The GI50 was > 10 µM (inactive).

Which GI50 (786-0) does the source give for `C[C@@H]1C(=O)C[C@H]2C(C)(C)CCC[C@]2(C)[C@@]1(O)CCc1ccoc1` here?
The GI50 was > 100 µM (inactive).

What about the GI50 (A498) of the same compound?
The GI50 was > 100 µM (inactive).

What about the GI50 (A549) of the same compound?
The GI50 was > 100 µM (inactive).

What about the GI50 (ACHN) of the same compound?
Its GI50 is > 100 µM (inactive).

And the GI50 (BT-549)?
Its GI50 is > 100 µM (inactive).

And the GI50 (CAKI-1)?
Its GI50 is > 100 µM (inactive).

And the GI50 (CCRF-CEM)?
Its GI50 is > 100 µM (inactive).

What about the GI50 (COLO 205) of the same compound?
Its GI50 is > 100 µM (inactive).

And the GI50 (DU-145)?
Its GI50 is > 100 µM (inactive).

What about the GI50 (EKVX) of the same compound?
The GI50 was > 100 µM (inactive).

What about the GI50 (HCC 2998) of the same compound?
Its GI50 is > 100 µM (inactive).

What about the GI50 (HCT-116) of the same compound?
Its GI50 is > 100 µM (inactive).

And the GI50 (HCT-15)?
Its GI50 is greater than 100 µM.

What about the GI50 (HL-60) of the same compound?
The GI50 was 53 µM (inactive).

What about the GI50 (HOP-62) of the same compound?
Its GI50 is > 100 µM (inactive).

What about the GI50 (HOP-92) of the same compound?
Its GI50 is > 100 µM (inactive).

And the GI50 (HT-29)?
The GI50 was > 100 µM (inactive).

What about the GI50 (Hs-578T) of the same compound?
Its GI50 is 89.5 µM (inactive).

What about the GI50 (IGROV-1) of the same compound?
The GI50 was 57.4 µM (inactive).

And the GI50 (K562)?
Its GI50 is > 100 µM (inactive).

What about the GI50 (KM12) of the same compound?
Its GI50 is > 100 µM (inactive).

What about the GI50 (LOX IMVI) of the same compound?
The GI50 was > 100 µM (inactive).

And the GI50 (M14)?
Its GI50 is > 100 µM (inactive).

What about the GI50 (MCF7) of the same compound?
Its GI50 is > 100 µM (inactive).

And the GI50 (MDA-MB-231)?
The GI50 was > 100 µM (inactive).

What about the GI50 (MDA-MB-435) of the same compound?
Its GI50 is > 100 µM (inactive).

And the GI50 (MDA-N)?
Its GI50 is > 100 µM (inactive).

What about the GI50 (MOLT-4) of the same compound?
Its GI50 is 80.4 µM (inactive).

And the GI50 (Malme-3M)?
The GI50 was > 100 µM (inactive).

And the GI50 (NCI-H226)?
Its GI50 is 13.4 µM (inactive).

And the GI50 (NCI-H23)?
The GI50 was > 100 µM (inactive).

And the GI50 (NCI-H460)?
The GI50 was > 100 µM (inactive).

And the GI50 (NCI-H522)?
The GI50 was 66.4 µM (inactive).

And the GI50 (OVCAR-3)?
Its GI50 is > 100 µM (inactive).

What about the GI50 (OVCAR-4) of the same compound?
The GI50 was > 100 µM (inactive).

What about the GI50 (OVCAR-5) of the same compound?
The GI50 was > 100 µM (inactive).

And the GI50 (OVCAR-8)?
The GI50 was > 100 µM (inactive).

What about the GI50 (PC-3) of the same compound?
The GI50 was > 100 µM (inactive).

What about the GI50 (RPMI-8226) of the same compound?
The GI50 was 84.3 µM (inactive).

And the GI50 (RXF 393)?
The GI50 was > 100 µM (inactive).

What about the GI50 (SF-268) of the same compound?
Its GI50 is 96.4 µM (inactive).

And the GI50 (SF-295)?
The GI50 was > 100 µM (inactive).

And the GI50 (SF-539)?
Its GI50 is > 100 µM (inactive).

What about the GI50 (SK-MEL-28) of the same compound?
The GI50 was > 100 µM (inactive).

What about the GI50 (SK-MEL-2) of the same compound?
The GI50 was > 100 µM (inactive).

And the GI50 (SK-MEL-5)?
The GI50 was > 100 µM (inactive).

And the GI50 (SK-OV-3)?
Its GI50 is > 100 µM (inactive).

And the GI50 (SN12C)?
Its GI50 is > 100 µM (inactive).

What about the GI50 (SNB-19) of the same compound?
The GI50 was > 100 µM (inactive).

What about the GI50 (SNB-75) of the same compound?
The GI50 was > 100 µM (inactive).

What about the GI50 (SR) of the same compound?
Its GI50 is 11.5 µM (inactive).

What about the GI50 (SW-620) of the same compound?
The GI50 was > 100 µM (inactive).

And the GI50 (T47D)?
The GI50 was 82 µM (inactive).

What about the GI50 (TK-10) of the same compound?
Its GI50 is > 100 µM (inactive).

And the GI50 (U-251)?
The GI50 was > 100 µM (inactive).

And the GI50 (UACC-257)?
Its GI50 is > 100 µM (inactive).

What about the GI50 (UACC-62) of the same compound?
The GI50 was > 100 µM (inactive).

What about the GI50 (UO-31) of the same compound?
The GI50 was 55.1 µM (inactive).
